Results on two compounds are retold here after patent US20250388896A1, “COMPOSITION AND METHODS FOR TRANSGENE INSERTION” (ARTISAN DEVELOPMENT LABS, INC, priority 2022, published 2025).

In one data set the test system is AAVS1. The data set is described as follows: CAR insertion efficiency at AAVS1 in primary T-cells by flow cytometry. It counts as cell-based, human. Particulars: primary Pan T-cells; recovery medium pretreated with 2 μM M3814; 75:50 pmol gNA:MAD7, 1.5 μg μL^−1 donor template, PGA.
The test system of the next data set is AAVS1 locus. The data set is described as follows: INDEL frequency at the AAVS1 locus in Jurkat cells. The data set is classed as cell-based, human. On the procedure: Ribonucleoprotein complexes (RNPs) were generated by incubating respective guide nucleic acids (gNAs) with MAD7 in the molar ratio of 3:2 gNA:MAD7 for 15 minutes at room temperature immediately before transfection. For Jurkat experiments, the RNP complexes were generated by mixing the respective gNA (150 pmol), MAD7 (100 pmol), and nuclease-free water, unless otherwise stated. […] Lonza 4D Nucleofector with Shuttle unit (V4SC-2960 Nucleocuvette Strips) was used for transfection, following the manufacturer's instructions. […] Extracted genomic DNA was quantified using the NanoDrop (ThermoFisher Scientific). […] The DNA was eluted from the beads with nuclease-free water and the size of the purified amplicons analyzed on a 2% agarose E-gel using the E-gel electrophoresis system (ThermoFisher Scientific). In the second PCR, unique pairs of Illumina-compatible indexes (Nextera XT Index Kit v2) were added to the amplicons using the KAPA HiFi HotStart Ready Mix (Roche). […] Sizes of the purified DNA fragments were validated on a 2% agarose gel using the E-gel electrophoresis system (ThermoFisher Scientific), quantified using Qubit dsDNA HS Assay Kit (Thermo Fisher) and then pooled in equimolar concentrations. […] The final library was sequenced on Illumina MiSeq System using the MiSeq Reagent Kit v.2 (300 cycles, 2×250 bp, paired-end reads). […]

Regarding `COc1ccc([C@@H](O)c2cc(-c3ncnc4cc(N5CCOCC5)ccc34)c(F)cc2Cl)nn1` [M3814], in the data set on AAVS1, the “more efficient CAR insertion than other experiments” value was approximately 5 times.

Take “crAAVS1: highly active gNA targeting the AAVS1 safe-harbor locus (guide TTAGGATGGCCTTCTCCGACG; listed as DNA, further chemistry not given here)”: the “activity of gNA targeting AAVS1 (INDEL frequency)” value in the data set on AAVS1 locus is recorded as “highly active”.
